Reference: patent publication US6617329B2, “Aminoquinazolines and their use as medicaments” (Boehringer Ingelheim Pharma KG, priority 2000, dated 2003)

The compounds below were run against T1, human EGF-R (Homo sapiens, UniProt P00533) (assay: Inhibition of EGF-dependent proliferation of F/L-HERc cells (Cell Titer 96 AQueous assay)). Settings: F/L-HERc cells (murine IL-3-dependent line expressing human EGF-R), stimulated with EGF 20 ng/ml, 48 hours at 37° C.
T1 construct: expressed in transfected cells; host or cells: F/L-HERc cells (murine IL-3-dependent FDC-P1 line transduced with LXSN retroviral vector carrying human EGF-R cDNA; packaging line GP+E86)
T1 sequence (P00533 25-1210): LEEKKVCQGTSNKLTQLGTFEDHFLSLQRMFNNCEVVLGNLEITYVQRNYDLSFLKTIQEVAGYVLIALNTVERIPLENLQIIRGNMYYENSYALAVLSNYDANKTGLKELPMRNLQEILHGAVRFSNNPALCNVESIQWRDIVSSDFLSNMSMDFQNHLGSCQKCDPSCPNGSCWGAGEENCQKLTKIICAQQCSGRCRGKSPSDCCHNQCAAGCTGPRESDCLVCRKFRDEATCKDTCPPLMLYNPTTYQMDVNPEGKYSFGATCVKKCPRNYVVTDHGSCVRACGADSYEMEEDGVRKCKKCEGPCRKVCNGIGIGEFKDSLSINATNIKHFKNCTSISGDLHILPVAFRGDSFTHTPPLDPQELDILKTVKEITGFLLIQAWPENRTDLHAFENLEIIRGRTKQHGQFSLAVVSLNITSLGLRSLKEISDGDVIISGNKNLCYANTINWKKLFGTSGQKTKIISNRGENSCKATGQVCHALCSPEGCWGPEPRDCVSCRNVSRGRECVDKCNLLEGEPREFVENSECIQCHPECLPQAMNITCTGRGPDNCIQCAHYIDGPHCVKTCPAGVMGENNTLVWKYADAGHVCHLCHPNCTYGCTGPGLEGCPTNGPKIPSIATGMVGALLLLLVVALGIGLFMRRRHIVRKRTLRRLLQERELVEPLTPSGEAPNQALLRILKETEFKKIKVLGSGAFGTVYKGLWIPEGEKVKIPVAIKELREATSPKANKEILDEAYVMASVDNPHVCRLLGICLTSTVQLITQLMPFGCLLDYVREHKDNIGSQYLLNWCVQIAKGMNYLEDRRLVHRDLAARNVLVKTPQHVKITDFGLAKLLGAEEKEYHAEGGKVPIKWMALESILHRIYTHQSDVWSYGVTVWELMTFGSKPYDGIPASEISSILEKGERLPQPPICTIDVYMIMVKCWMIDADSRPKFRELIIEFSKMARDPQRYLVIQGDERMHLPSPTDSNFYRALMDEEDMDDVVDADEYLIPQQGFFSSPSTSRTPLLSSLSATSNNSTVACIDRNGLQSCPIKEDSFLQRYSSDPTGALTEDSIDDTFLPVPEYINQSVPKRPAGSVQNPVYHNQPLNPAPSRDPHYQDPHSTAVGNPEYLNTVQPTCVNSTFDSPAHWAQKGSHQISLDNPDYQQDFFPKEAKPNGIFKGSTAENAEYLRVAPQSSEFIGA
Assay type: cell-based
Source text: A cell line of murine origin dependent on interleukin-3-(IL-3) which was genetically modified to express functional human EGF-R was used here. The proliferation of these cells known as F/L-HERc can therefore be stimulated either by murine IL-3 or by EGF (cf. von Rüden, T. et al. in EMBO J. 7, 2749-2756 (1988). and Pierce, J. H. et al. in Science 239, 628-631 (1988)).
The starting material used for the F/L-HERc cells was the cell line FDC-P1, the production of which has been described by Dexter, T. M. et al. in J. Exp. Med. 152, 1036-1047 (1980). Alternatively, however, other growth-factor-dependent cells may also be used (cf. for example Pierce, J. H. et al. in Science 239, 628-631 (1988), Shibuya, H. et al. in Cell 70, 57-67 (1992) and Alexander, W. S. et al. in EMBO J. 10, 3683-3691 (1991)). For expressing the human EGF-R cDNA (cf. Ullrich, A. et al. in Nature 309, 418-425 (1984)) recombinant retroviruses were used as described by von Rüden, T. et al., EMBO J. 7, 2749-2756 (1988), except that the retroviral vector LXSN (cf. Miller, A. D. et al. in BioTechniques 7, 980-990 (1989)) was used for the expression of the EGF-R cDNA and the line GP+E86 (cf. Markowitz, D. et al. in J. Virol. 62, 1120-1124 (1988)) was used as the packaging cell.
F/L-HERc cells were cultivated in RPMI/1640 medium (Bio Whittaker), supplemented with 10% foetal calf serum (FCS, Boehringer Mannheim), 2 mM glutamine (Bio Whittaker), standard antibiotics and 20 ng/ml of human EGF (Promega), at 37° C. and 5% CO2. In order to investigate the inhibitory activity of the compounds according to the invention, 1.5×10^4 cells per well were cultivated in triplicate in 96-well dishes in the above medium (200 μl), the cell proliferation being stimulated with either EGF (20 ng/ml) or murine IL-3. The IL-3 used was obtained from culture supernatants of the cell line X63/0 mIL-3 (cf. Karasuyama, H. et al. in Eur. J. Immunol. 18, 97-104 (1988)). The compounds according to the invention were dissolved in 100% dimethylsulphoxide (DMSO) and added to the cultures in various dilutions, the maximum DMSO concentration being 1%. The cultures were incubated for 48 hours at 37° C.
In order to determine the inhibitory activity of the compounds according to the invention the relative cell number was measured in O.D. units using the Cell Titer 96™ AQueous Non-Radioactive Cell Proliferation Assay (Promega). The relative cell number was calculated as a percentage of the control (F/LHERc cells without inhibitor) and the concentration of active substance which inhibits the proliferation of the cells by 50% (IC50) was derived therefrom.
In the case of `O=C1CC(N2CCN(CCOc3cc4ncnc(Nc5ccc(F)c(Cl)c5)c4cc3OC3CCCC3)CC2)CO1` (stereo not shown) [3(1), 4-[(3-chloro-4-fluorophenyl)amino]-6-cyclopentyloxy-7-{2-[4-(2-oxo-tetrahydrofuran-4-yl)-piperazin-1-yl]-ethoxy}-quinazoline], the IC50 is reported as 11 nM. With `O=C1OCCC1N1CCN(CCOc2cc3ncnc(Nc4ccc(F)c(Cl)c4)c3cc2OC2CCCC2)CC1` (stereo not shown) [Example 1, 4-[(3-chloro-4-fluorophenyl)amino]-6-cyclopentyloxy-7-{2-[4-(2-oxo-tetrahydrofuran-3-yl)-piperazin-1-yl]-ethoxy}-quinazoline] the IC50 was 4 nM. With `O=C1CC(N2CCN(CCOc3cc4ncnc(Nc5ccc(F)c(Cl)c5)c4cc3OCC3CCCC3)CC2)CO1` (stereo not shown) [Example 3, 4-[(3-chloro-4-fluorophenyl)amino]-6-cyclopentylmethoxy-7-{2-[4-(2-oxo-tetrahydrofuran-4-yl)-piperazin-1-yl]-ethoxy}-quinazoline] the IC50 was 62 nM. In the case of `O=C1CC[C@H](CN2CCN(CCOc3cc4ncnc(Nc5ccc(F)c(Cl)c5)c4cc3OC3CCCC3)CC2)O1` [Example 4, 4-[(3-chloro-4-fluorophenyl)amino]-6-cyclopentyloxy-7-(2-{4-[(R)-(2-oxo-tetrahydrofuran-5-yl)methyl]-piperazin-1-yl}-ethoxy)-quinazoline], the IC50 is reported as 67 nM.
